Experiment [1] deals with A549 cells transfected with Aurora B shRNA. Description: Anchorage-independent growth, Aurora B knockdown cells. It is filed as cell-based. The following applies: Homo sapiens. On the procedure: (§1) Tumor cells are suspended in basal medium Eagle (BME) medium and added to 0.6% agar, with different concentrations of Compound 1 in a base layer and a top layer of 0.3% agar. The cultures are maintained at 37° C. in a 5% CO2 incubator for 1 to 2 weeks and then colonies are counted under a microscope using the Image-Pro Plus software (v.4) program (Media Cybernetics, Silver Spring, Md.).
(§2) The effect of knocking down Aurora B expression in A549 cancer cells on the cell's sensitivity to Compound 1 was evaluated. […] Compound 1 (0.5 μM) inhibited anchorage-independent growth of A549 cells transfected with mock shRNA by about 90%.

The next experiment deals with HCT116 p53−/− cells. Put plainly: Soft agar assay, p53-deficient colon cancer cells. In kind it is cell-based. To be noted: Homo sapiens, read-out: inhibition of growth in soft agar. On the procedure: as §1
(§3) The effect of compound 1 in a pair of colon cancer cell lines, p53 wildtype (HCT116 p53^+/+) and p53-deficient (HCT116 p53^−/−) cells was also examined to determine whether the sensitivity of cells to compound 1 directly correlates with the status of p53 in cells.

Experiment [2] deals with A549 cells transfected with mock shRNA. Description: Anchorage-independent growth, mock shRNA cells. In kind it is cell-based. To be noted: Homo sapiens. On the procedure: as §1, §2
Another experiment addresses Akt1 (Homo sapiens, UniProt P31749). Description: Akt1 in vitro kinase assay. In kind it is biochemical. On the procedure:
According to the kinase profiler assay results, Akt2 also might be a potential target of Compound 1. An Akt1 and Akt2 in vitro kinase assays was performed.

For another experiment, the system named is HCT116 p53+/+ cells. Put plainly: Soft agar assay, p53 wildtype colon cancer cells. In kind it is cell-based. How it is done:
as §1, §3

The subject of experiment [3] is H520 cells. Put plainly: Anchorage-independent growth of human lung cancer cells. It is filed as cell-based. On the procedure:
as §1
(§4) The effect of Compound 1 treatment on anchorage-independent growth of human lung cancer cells, including A549, H1650, and H520 cells was then examined. […] Compound 1 at 0.5 or 1 μM caused a decrease of more than 80% or 90% compared to control in all cell lines detected.

The next experiment deals with H1650 cells. The experiment is described as above. In kind it is cell-based. On the procedure:
as §1, §4

Experiment [4] deals with A549 cells. The description is as above. In kind it is cell-based. How it is done: as §1, §4
Another experiment addresses Aurora B (Homo sapiens, UniProt Q96GD4). Description: Aurora B in vitro kinase assay (histone H3 Ser10 phosphorylation, Western blot). In kind it is biochemical. On the procedure: Proteins are resolved by SDS-PAGE and transferred onto polyvinylidene difluoride membranes (Millipore, Mass.), which are blocked with nonfat milk and hybridized with specific primary antibodies. The protein bands are visualized using an enhanced chemiluminescence reagent (GE Healthcare, Pittsburgh, Pa.) after hybridization with a horseradish peroxidase-conjugated secondary antibody.
Reactions are carried out in 1× kinase buffer (25 mM Tris-HCl pH 7.5, 5 mM beta-glycerophosphate, 2 mM dithiothreitol (DTT), 0.1 mM Na3VO4, 10 mM MgCl2 and 5 mM MnCl2) containing 100 μM ATP at 30° C. for 30 minutes. Reactions are stopped and proteins detected by Western blotting.
An in vitro kinase assay was used to determine whether Compound 1 could inhibit Aurora B kinase activity using recombinant Aurora B protein and various concentrations of Compound 1. […] The effect of Compound 1 on Aurora A kinase activity using an in vitro kinase assay was also examined.
(In western blotting, separated proteins are transferred to a membrane and probed.)

The next experiment concerns the target T1, Aurora A (Homo sapiens, UniProt O14965).
T1 construct: purchased Millipore
T1 sequence (O14965 1-403): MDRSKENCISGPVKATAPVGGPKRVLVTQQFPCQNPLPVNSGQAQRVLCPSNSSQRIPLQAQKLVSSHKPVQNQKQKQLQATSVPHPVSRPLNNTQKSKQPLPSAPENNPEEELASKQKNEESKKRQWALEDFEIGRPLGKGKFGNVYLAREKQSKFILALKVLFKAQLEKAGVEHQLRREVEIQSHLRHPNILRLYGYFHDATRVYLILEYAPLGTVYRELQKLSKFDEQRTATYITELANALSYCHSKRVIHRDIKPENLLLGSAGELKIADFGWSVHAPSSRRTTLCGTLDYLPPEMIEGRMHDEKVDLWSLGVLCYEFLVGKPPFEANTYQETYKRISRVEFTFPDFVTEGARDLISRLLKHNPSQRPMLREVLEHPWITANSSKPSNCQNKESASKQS
Description: Aurora A in vitro kinase assay. It is filed as biochemical. To be noted: 1 μM, compared with control. On the procedure: Proteins are resolved by SDS-PAGE and transferred onto polyvinylidene difluoride membranes (Millipore, Mass.), which are blocked with nonfat milk and hybridized with specific primary antibodies. The protein bands are visualized using an enhanced chemiluminescence reagent (GE Healthcare, Pittsburgh, Pa.) after hybridization with a horseradish peroxidase-conjugated secondary antibody. […] Reactions are carried out in 1× kinase buffer (25 mM Tris-HCl pH 7.5, 5 mM beta-glycerophosphate, 2 mM dithiothreitol (DTT), 0.1 mM Na3VO4, 10 mM MgCl2 and 5 mM MnCl2) containing 100 μM ATP at 30° C. for 30 minutes. Reactions are stopped and proteins detected by Western blotting. An in vitro kinase assay was used to determine whether Compound 1 could inhibit Aurora B kinase activity using recombinant Aurora B protein and various concentrations of Compound 1. […] The effect of Compound 1 on Aurora A kinase activity using an in vitro kinase assay was also examined.

The subject of experiment [5] is H520 cells. Put plainly: Cell cycle analysis (flow cytometry). It is filed as cell-based, human. The following applies: H520, 48 hours. How it is done:
(§5) Cells are plated in 60-mm plates and treated or not treated with Compound 1 for the indicated time. At each time point, cells are fixed in 70% ethanol and stored at −20° C. for 24 h. After staining, the cell cycle distribution or apoptosis is determined using a BD FACSCalibur Flow Cytometer (BD Biosciences, San Jose, Calif.). Aurora B inhibition leads to failure in cytokinesis and abnormal exit from mitosis, which could result in polyploidy cells, cell cycle arrest, and ultimately apoptosis. The ability to induce polyploidy cells was further examined in A549 cells treated or not treated with Compound 1. […] In addition, Compound 1 treatment for 48 hours caused an increase in the number of A549 and H520 cells occupying the G2/M phase. Moreover, exposure of these cells to Compound 1 for 72 hours induced apoptosis as measured by Annexin V/PI staining. For example, exposure to 5 μM Compound 1 induced 48% or 82% apoptosis in A549 cells and H520 cells, compared to 8% or 38% in untreated control cells, respectively.
On the technique in general: A flow cytometer gives signals particle by particle.

In experiment [6] the test system is A549 cells. Description: Cell cycle analysis (flow cytometry). It is filed as cell-based, human. To be noted: A549, 48 hours. On the procedure:
as §5

The record followed here is patent US9796671B2, “Aurora kinase inhibitors” (REGENTS OF THE UNIVERSITY OF MINNESOTA, priority 2012, dated 2017).

SMILES strings stand for the structures.

Sequence of Aurora B (Q96GD4 whole entry): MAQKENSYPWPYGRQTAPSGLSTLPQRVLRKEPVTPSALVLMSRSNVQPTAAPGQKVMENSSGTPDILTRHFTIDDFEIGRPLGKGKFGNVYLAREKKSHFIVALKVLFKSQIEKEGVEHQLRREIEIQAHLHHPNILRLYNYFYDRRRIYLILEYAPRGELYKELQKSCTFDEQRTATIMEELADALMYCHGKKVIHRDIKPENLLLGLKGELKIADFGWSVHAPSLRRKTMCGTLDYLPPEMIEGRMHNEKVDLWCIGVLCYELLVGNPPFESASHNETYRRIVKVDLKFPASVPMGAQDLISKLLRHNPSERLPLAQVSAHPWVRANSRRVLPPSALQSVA
Sequence of Akt1 (P31749 whole entry, species assumed): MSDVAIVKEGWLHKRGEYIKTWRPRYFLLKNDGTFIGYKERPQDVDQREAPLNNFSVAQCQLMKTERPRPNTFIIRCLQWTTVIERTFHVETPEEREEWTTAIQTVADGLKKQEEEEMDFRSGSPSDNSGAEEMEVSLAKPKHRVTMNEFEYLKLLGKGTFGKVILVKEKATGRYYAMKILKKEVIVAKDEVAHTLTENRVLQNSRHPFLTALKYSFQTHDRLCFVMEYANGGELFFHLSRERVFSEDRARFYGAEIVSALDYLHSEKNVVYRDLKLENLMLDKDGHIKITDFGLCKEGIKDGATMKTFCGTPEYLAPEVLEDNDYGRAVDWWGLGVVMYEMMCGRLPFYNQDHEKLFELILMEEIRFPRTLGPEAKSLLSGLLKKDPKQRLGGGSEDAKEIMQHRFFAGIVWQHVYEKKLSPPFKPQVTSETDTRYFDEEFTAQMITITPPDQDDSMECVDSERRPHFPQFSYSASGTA

What is called inhibition is the share of the control response that was lost under treatment. Consider `O=C(/C=C/c1ccc2c(c1)OCO2)/C=C1/C(=O)Nc2ccccc21` [Compound 1], for which the results for the inhibition at 0.5 µM in experiment [1] and in experiment [2] were below 40% and around 90%, respectively. In addition, the inhibition at 0.05 µM in the experiment on HCT116 p53−/− cells (HCT-116, 0.05 μM) came out at 40%; against Aurora B (0.05 μM), 22%. For the same molecule, the inhibition at 0.1 µM in the experiment with HCT116 p53−/− cells (HCT-116, 0.1 μM) is above 95%; in the experiment with HCT116 p53+/+ cells (Homo sapiens, HCT-116, 0.1 μM, read-out: inhibition of growth in soft agar), 55%; against Aurora B (0.1 μM), 50%. Also, the inhibition at 5 µM on Akt1 (5 μM) was 32%. Further, on Akt1 (discussion statement), the “concentration inhibiting Akt1 kinase activity in vitro” value was at least 1 µM. Besides, in the experiment with HCT116 p53+/+ cells (0.05 μM), the “inhibition of growth in soft agar” value is given as “no inhibition”. For the same molecule, the “decrease of anchorage-independent growth compared to control” value is “more than 80%” with H520 cells [3] (H520, 0.5 μM); above 90% with H520 cells [3] (H520, 1 μM); “more than 80%” in the experiment with H1650 cells (H1650, 0.5 μM); above 90% in the experiment on H1650 cells (H1650, 1 μM); “more than 80%” in the experiment with A549 cells [4] (A549, 0.5 μM); above 90% in the experiment with A549 cells [4] (A549, 1 μM). Further, on Aurora B (1 μM), the “histone H3 (Ser10) phosphorylation band by Aurora B” value was “only a weak histone H (Ser10) band”. Further, on Aurora B (discussion statement), the “concentration required for Aurora B inhibition” value is at most 1 µM. The “effect on histone H3 (Ser10) phosphorylation by Aurora A” value on Aurora A is recorded as “No effect”. Also, the “number of cells occupying the G2/M phase” value with H520 cells [5] and with A549 cells [6] was “increase” each time.
